Assay results: ChEMBL document CHEMBL4190408 (J Med Chem, 2018)
In brackets after ≈: the same amount, converted by molar mass.

Columns and labels:
physchem [1] = details: phosphate buffer, pH 7.4
physchem [2] = details: buffer, pH 7.4
[3] = Thermodynamic solubility of the compound in pH 7.4 solution after 90 mins by UVLC-MS analysis; assay type: physicochemical; details: for Therm_solubility: buffer, pH 7.4, 1.5 h; for solubility thermodynamic at 1.5 h: pH 7.4 solution, pH 7.4, read-out: Therm_solubility
[4] = molecular target: Voltage-gated inwardly rectifying potassium channel KCNH2 (Homo sapiens, UniProt Q12809)
Voltage-gated inwardly rectifying potassium channel KCNH2, sequence (Q12809 whole entry): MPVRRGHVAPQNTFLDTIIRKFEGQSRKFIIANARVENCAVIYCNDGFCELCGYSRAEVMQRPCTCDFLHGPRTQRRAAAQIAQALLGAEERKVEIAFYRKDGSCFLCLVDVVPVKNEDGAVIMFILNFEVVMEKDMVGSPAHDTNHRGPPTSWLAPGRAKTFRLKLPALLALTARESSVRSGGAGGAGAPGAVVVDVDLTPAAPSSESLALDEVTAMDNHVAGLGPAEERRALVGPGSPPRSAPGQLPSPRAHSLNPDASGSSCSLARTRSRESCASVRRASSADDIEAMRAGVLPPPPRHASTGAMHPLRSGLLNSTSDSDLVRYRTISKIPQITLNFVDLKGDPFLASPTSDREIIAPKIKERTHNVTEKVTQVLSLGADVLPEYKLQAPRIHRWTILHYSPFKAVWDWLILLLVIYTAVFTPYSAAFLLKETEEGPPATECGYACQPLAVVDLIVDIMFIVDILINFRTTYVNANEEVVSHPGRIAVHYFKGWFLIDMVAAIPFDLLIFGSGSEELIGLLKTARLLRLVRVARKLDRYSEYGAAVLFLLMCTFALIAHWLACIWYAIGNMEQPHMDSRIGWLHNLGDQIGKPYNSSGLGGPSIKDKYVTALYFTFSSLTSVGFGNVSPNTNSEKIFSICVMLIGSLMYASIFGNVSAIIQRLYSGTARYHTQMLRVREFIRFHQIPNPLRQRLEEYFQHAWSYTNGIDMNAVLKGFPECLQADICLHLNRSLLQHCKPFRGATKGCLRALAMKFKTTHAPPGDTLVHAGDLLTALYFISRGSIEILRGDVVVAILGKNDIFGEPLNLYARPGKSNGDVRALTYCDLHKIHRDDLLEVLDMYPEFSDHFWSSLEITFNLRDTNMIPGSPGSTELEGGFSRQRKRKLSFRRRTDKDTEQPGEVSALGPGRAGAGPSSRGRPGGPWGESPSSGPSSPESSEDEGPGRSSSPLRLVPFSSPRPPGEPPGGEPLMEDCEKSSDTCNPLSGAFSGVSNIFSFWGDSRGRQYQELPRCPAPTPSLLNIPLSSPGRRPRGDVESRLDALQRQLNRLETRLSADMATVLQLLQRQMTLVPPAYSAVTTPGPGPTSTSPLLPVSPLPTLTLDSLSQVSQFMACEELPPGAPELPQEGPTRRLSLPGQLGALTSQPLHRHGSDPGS

Cytochrome P450 3A4 = Cytochrome P450 3A4 (Homo sapiens, UniProt P08684); details: liver microsomes
Cytochrome P450 3A4, sequence (P08684 whole entry): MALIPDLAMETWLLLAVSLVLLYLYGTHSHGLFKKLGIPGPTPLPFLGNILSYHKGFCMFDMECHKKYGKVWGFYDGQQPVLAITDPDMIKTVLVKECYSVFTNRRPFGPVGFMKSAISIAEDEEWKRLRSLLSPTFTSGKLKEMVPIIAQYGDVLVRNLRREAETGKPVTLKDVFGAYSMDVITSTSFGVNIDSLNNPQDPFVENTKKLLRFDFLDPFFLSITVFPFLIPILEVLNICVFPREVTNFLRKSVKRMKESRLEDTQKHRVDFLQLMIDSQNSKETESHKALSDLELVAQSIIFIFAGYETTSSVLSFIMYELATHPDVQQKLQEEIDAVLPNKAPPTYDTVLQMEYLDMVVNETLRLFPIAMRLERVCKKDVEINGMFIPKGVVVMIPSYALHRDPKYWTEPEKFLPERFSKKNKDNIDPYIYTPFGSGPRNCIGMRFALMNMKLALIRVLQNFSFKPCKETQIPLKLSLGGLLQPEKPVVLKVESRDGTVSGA

in vitro [5] = details: human, liver microsomes
in vitro [6] = details: mouse, liver microsomes

Row | Compound | logD at 1.5 h (physchem [1]) | solubility kinetic at 1.5 h (physchem [2]) [µM] | other results
1 | Nc1nc(N2CCN(C(=O)COc3ccc(Cl)cc3)CC2)c2ncsc2n1 | 2.68 | 13 (≈ 5.26 µg/mL) | 
2 | Nc1nc(N2CCN(C(=O)Nc3ccc(OC(F)(F)F)cc3)CC2)c2ncsc2n1 | 3.39 | 12 (≈ 5.27 µg/mL) | 
3 | Cc1ccc(NC(=O)N2CCN(c3nc(N)nc4scnc34)CC2)cc1 | 2.55 | 21 (≈ 7.76 µg/mL) | 
4 | COc1ccc(NC(=O)N2C[C@@H](C)N(c3nc(N)nc4scnc34)[C@@H](C)C2)cc1 |  | 83 (≈ 34.3 µg/mL) | Therm_solubility [3]: Nd(Insoluble); IC50 [4]: Nd(Insoluble); IC50 (Cytochrome P450 3A4): Nd(Insoluble)
5 | COc1ccc(NC(=O)N2CCN(c3nc(N)nc4scnc34)CC2)cn1 | 1.79 | 293 (≈ 113 µg/mL) | 
6 | Nc1nc(N2CCN(C(=O)c3cc4ccccc4[nH]3)CC2)c2ncsc2n1 | 2.84 | 14 (≈ 5.31 µg/mL) | 
7 | Cc1ccccc1NC(=O)N1CCN(c2nc(N)nc3scnc23)CC1 | 2.12 | 33 (≈ 12.2 µg/mL) | 
8 | COc1ccc(NC(=O)N2CCN(c3nc(N)nc4scnc34)CC2)c(C)n1 | 1.65 | 207 (≈ 82.9 µg/mL) | 
9 | COc1ccc(CNC(=O)N2CCN(c3nc(N)nc4scnc34)CC2)cc1 | 2.22 | 33 (≈ 13.2 µg/mL) | 
10 | COc1ccc(NC(=O)N2CCN(c3nc(N)nc4scnc34)CC2)c(C)c1 | 2.03 | 33 (≈ 13.2 µg/mL) | 
11 | COc1ccc(NC(=O)N2C[C@H](C)N(c3nc(N)nc4scnc34)C[C@H]2C)cc1 |  | 88 (≈ 36.4 µg/mL) | Therm_solubility [3]: Nd(Insoluble); IC50 [4]: Nd(Insoluble); IC50 (Cytochrome P450 3A4): Nd(Insoluble)
12 | COc1ccc(NC(=O)N2CCN(c3nc(N)nc4sncc34)[C@@H](C)C2)c(C)c1 | 1.96 | > 350 | solubility thermodynamic at 1.5 h [3]: 52 µM (≈ 21.5 µg/mL)
13 | COc1ccc(CC(=O)N2CCN(c3nc(N)nc4scnc34)CC2)cc1OC | 1.5 | > 350 | 
14 | COc1ccc(NC(=O)N2CCN(c3nc(N)nc4scnc34)CC2C)cc1 (stereo not drawn) |  | > 350 | Therm_solubility [3]: Nd(Insoluble); IC50 [4]: Nd(Insoluble); IC50 (Cytochrome P450 3A4): Nd(Insoluble)
15 | Cc1cccc(NC(=O)N2CCN(c3nc(N)nc4scnc34)CC2)c1 | 2.81 | 34 (≈ 12.6 µg/mL) | 
16 | Nc1nc(N2CCN(C(=O)Nc3cccnc3)CC2)c2ncsc2n1 | 1.46 | > 350 | 
17 | COc1ccc(NC(=O)N2CCN(c3nc(N)nc4scnc34)[C@@H](C)C2)c(C)c1 |  | 160 (≈ 66.2 µg/mL) | solubility thermodynamic at 1.5 h [3]: 3 µM (≈ 1.24 µg/mL)
18 | Nc1nc(N2CCN(C(=O)Nc3ccccc3)CC2)c2ncsc2n1 | 2.21 | 178 (≈ 63.3 µg/mL) | 
19 | COc1ccc(NC(=O)N2CCN(c3nc(N)nc4scnc34)C(C)C2C)cc1 (stereo not drawn) |  | > 350 | Therm_solubility [3]: Nd(Insoluble); IC50 [4]: Nd(Insoluble); IC50 (Cytochrome P450 3A4): Nd(Insoluble)
20 | Nc1nc(N2CCN(C(=O)c3cn4ccccc4n3)CC2)c2ncsc2n1 | 1.58 | > 350 | 
21 | COc1cc(C)c(NC(=O)N2CCN(c3nc(N)nc4scnc34)CC2)cn1 | 1.66 | > 350 | 
22 | COc1ccc(NC(=O)N2CCN(c3nc(N)nc4sc(-c5cccnc5)nc34)CC2)cc1 |  |  | microsomal CLint at 0.75 h, 3 µM (in vitro [5]): 35 µL/min/mg; microsomal CLint at 0.75 h, 3 µM (in vitro [6]): 87 µL/min/mg
23 | COc1ccc(NC(=O)N2CCN(c3nc(N)nc4scnc34)C(C)C2)cc1 (stereo not drawn) |  | > 350 | Therm_solubility [3]: Nd(Insoluble); IC50 [4]: Nd(Insoluble); IC50 (Cytochrome P450 3A4): Nd(Insoluble)
24 | COc1ccc(NC(=O)N2CCN(c3nc(N)nc4sccc34)[C@@H](C)C2)c(C)c1 | 2.39 | 82 (≈ 33.8 µg/mL) | 
25 | COc1ccc(NC(=O)N2CCN(c3nc(N)nc4scnc34)[C@H](C)C2)c(C)c1 |  | 170 (≈ 70.3 µg/mL) | Therm_solubility [3]: Nd(Insoluble)
26 | Nc1nc(N2CCN(C(=O)c3nc4ccccc4[nH]3)CC2)c2ncsc2n1 | 2.54 | 38 (≈ 14.5 µg/mL) | 
